Experimental data published in patent US5972894A, “Peptides having potassium channel opener activity” (Cytran, Inc., priority 1997, dated 1999).
Residues, ends and D or L forms follow the SMILES beside them.

What was measured:
[1] = system: Smooth Muscle Cells of Rat Portal Vein; assay: Spontaneous contractile activity of rat portal vein smooth muscle specimens; format: cell-based; settings: 10^-6 g/ml
Procedure: Rat portal vein SMS samples were surgically isolated from random bred rats weighing 200-250 g. The suitability of each isolated rat portal vein SMS was established by measuring the spontaneous contraction response and its contractile response of the specimen to potassium chloride (KCl) as follows. Each isolated SMS was placed into an organ bath with standard Krebs-Henseleit (KH) solution at 35° C. Then, 0.5 ml of physiological saline were added into the organ bath. In this procedure, one end of the smooth muscle strip was fixed, while the other end of the muscle strip was connected with a probe which transmitted contraction-induced signals to an analog-to-digital converter. The spontaneous contraction curve for each SMS was recorded by taking repeated measurements over a 1-minute period. Next, 0.5 ml of a 600 mM solution of KCl in physiological saline was added to the SMS sample/organ bath to achieve a final concentration of 60 mM KCl. KCl induces contraction of rat portal vein tissue at a fmal tissue concentration of about 60 mM.
The KCl-induced contraction curve for each specimen sample was then recorded over the next 5-minute period. […] During this stabilization period, the spontaneous contraction curve for each SMS was verified by monitoring the data obtained from analog-to-digital converter.
To each SMS in the organ bath prepared according to Steps 2 and 3 above, 0.5 ml of physiological saline was added, and the spontaneous contraction curve was recorded for 1 minute. Each spontaneous contraction curve served as baseline (control) curve for comparison with the respective spontaneous contraction of each SMS in the presence of a test substance or reference substance.
(§1) Spontaneous contraction curve values for each SMS were recorded by making repetitive measurements of the spontaneous contractile activity of each sample at 2, 5, 10, and 15 minutes after the addition of the test or reference substance to each SMS/organ bath. Next, 0.5 ml of a solution of 600 mM solution of KCl in […] in the organ bath until a final concentration of 60 mM KCl was achieved. The contractile activity of each SMS was then measured for 5 minutes.

Rat Portal Vein = assay: KCl-induced tonic contraction of rat portal vein smooth muscle specimens; format: cell-based
Procedure: as §1

Intestinal Smooth Muscle = assay: Calcium-induced contraction of intestinal smooth muscle specimens; format: cell-based, guinea pigs; settings: for Contraction Amplitude, calcium-induced (% of control level): 20 mM CaCl2
Procedure: GE and VT served as test substances in this experiment. GE was tested at concentrations of 10^-6 g/ml and 10^-5 g/ml (4.9×10^-6 M and 4.9×10^-5 M, respectively), and VT was tested at concentrations 10^-6 g/ml and 10^-5 g/ml (4.58×10^-6 and 4.58×10^-5 M, respectively).
Small intestinal SMS samples from ten guinea pigs were surgically isolated and prepared as follows. First, the SMS samples were preincubated for 40 minutes in an organ bath holding a standard Krebs-Henseleit physiological salt solution containing calcium chloride (CaCl2) at concentration of 2.5 mM. Next, each SMS was washed with a calcium-free solution of Krebs-Henseleit and incubated in a calcium-free Krebs-Henseleit solution for 40 minutes. Contractile activity was pre-induced in each SMS by first perfusing the organ bath containing the sample for 15 minutes with a Krebs-Henseleit solution containing 30 mM KCl and then perfusing the bath for an additional 15 minutes with a Krebs-Henseleit solution containing 20 mM CaCl2. Finally, each SMS sample was washed with a calcium-free Krebs-Henseleit solution for 40 minutes. In these experiments, measurements of the contractile response of the SMS following the addition of a Krebs-Henseleit solution containing 20 mM calcium served as the control (baseline). Changes in contraction amplitudes were recorded by using the method set forth in Step 1 of Example 2, above.
After washing the SMS as outlined in Step 1, the organ bath with the SMS sample was perfused for 15 minutes with the solution of a test or reference substance. In this instance, GE and VT served as the test substances, and each dipeptide was tested at a concentration of 10^-6 g/ml.
Following perfusion with the test or reference substance, the SMS sample/organ bath was perfused for 10 minutes with a Krebs-Henseleit solution containing 30 mM KCl and then perfused for an additional 10 minutes with a Krebs-Henseleit solution containing 20 mM CaCl2. Next, each SMS sample was washed with a calcium-free Krebs-Henseleit solution for 40 minutes. The effect of the test or reference substance on the SMS sample was evaluated by measuring the contractile response (i.e., the change in contraction amplitude) of the sample following the addition of the Krebs-Henseleit solution containing 20 mM CaCl2.
Next, the organ bath was perfused for 10 minutes with a Krebs-Henseleit solution containing 30 mM KCl and then for additional 10 minutes with a Krebs-Henseleit solution containing 20 mM CaCl2. The effect of the respective test or reference substance was evaluated a second time by measuring the change in the contraction amplitude of the SMS following the addition of the Krebs-Henseleit solution containing 20 mM CaCl2. […]

rats = assay: Early ischemic myocardial arrhythmias after coronary artery ligation; format: in vivo; settings: for Number of Ventricular Extrasystoles / Overall Duration of Ventricular Tachycardia: 30 min after coronary occlusion
Procedure: White random-bred male rats weighing 200 g were given light ether anesthesia and were then immobilized and artificially ventilated. The descending branch of the left coronary artery of each rat was ligated. Immediately following ligation, a test or control substance was administered to each rat through the catheterized femoral vein, and an ECG recording was initiated (standard lead II) and maintained for the next 30 minutes.
GE and VT served as test substances and were administered to animals in the respective test groups at doses of 0.1, 1.0, and 10.0 mg/kg. The β-adrenergic blocking agent, propranolol (Obzidan, Germed, Germany), served as the positive control substance and was administered intravenously to each animal in the positive control group at a dose of 0.5 mg/kg. Physiological saline served as the negative control substance and was administered intravenously to animals in the negative control group. Each dose of each test or control substance was tested separately on a group of nine animals.
The following parameters were evaluated based upon the ECG recordings: (i) the number of ventricular extrasystoles that occurred within a 30-minute observation period following coronary occlusion; (ii) the overall cumulative duration of ventricular tachycardias (i.e., the summation of duration of individual paroxysmal ventricular rhythm disturbances in seconds) occurring within the 30-minute observation period; and (iii) the overall duration (in seconds) of the ventricular fibrillations occurring within the 30-minute observation period. The data were processed electronically and statistical comparisons were made between the values obtained from the animals in the experimental test groups and those in the different respective control groups.

NCC(=O)N[C@@H](CCC(=O)O)C(=O)O [GE, L-Glycyl-L-Glutamic acid] (H-Gly-Glu-OH)
effect on spontaneous contractions (amplitude and area under curve) [1]: appreciably reduced the amplitude of and area under the contraction curve | Amplitude of spontaneous contraction (% of Control) ([1]; 2 min after application): 114.93% | Area Under Curve of spontaneous contraction (% of Control) ([1]; 2 min after application): 134.77% | Amplitude of spontaneous contraction (% of Control) ([1]; 5 min after application): 75.56% | Area Under Curve of spontaneous contraction (% of Control) ([1]; 5 min after application): 87.51% | Amplitude of spontaneous contraction (% of Control) ([1]; 10 min after application): 60.37% | Area Under Curve of spontaneous contraction (% of Control) ([1]; 10 min after application): 70.07% | Amplitude of spontaneous contraction (% of Control) ([1]; 15 min after application): 63.94% | Area Under Curve of spontaneous contraction (% of Control) ([1]; 15 min after application): 75.08% | Area Under Curve of KCl-Induced Contraction (% of control) (Rat Portal Vein; 10^-6 g/ml, 60 mM KCl): 90.26% | effect on tonic contraction induced by KCl (Rat Portal Vein; venous smooth muscle specimens): neither GE nor VT effected the character of the tonic contraction | effect on calcium-induced intestinal smooth muscle tonic contraction (Intestinal Smooth Muscle; 10^-6 and 10^-5 g/ml): significantly reduced the amplitude | Contraction Amplitude, calcium-induced (% of control level) (Intestinal Smooth Muscle; Application I, 10^-6 g/ml): 51.08% | Contraction Amplitude, calcium-induced (% of control level) (Intestinal Smooth Muscle; Application II, 10^-5 g/ml): 33.14% | Number of Ventricular Extrasystoles (rats; 0.1 mg/kg i.v.): 25.22 | Overall Duration of Ventricular Tachycardia (rats; 0.1 mg/kg i.v.): 38.67 s | Number of Ventricular Extrasystoles (rats; 1.0 mg/kg i.v.): 116.22 | Overall Duration of Ventricular Tachycardia (rats; 1.0 mg/kg i.v.): 93.17 s | Number of Ventricular Extrasystoles (rats; 10.0 mg/kg i.v.): 47.78 | Overall Duration of Ventricular Tachycardia (rats; 10.0 mg/kg i.v.): 51.78 s | effect on overall duration of ventricular tachycardias (rats; all of the tested doses): reduced the overall duration of ventricular tachycardias
